Values of other authors, collected in publication PMC8472685, “Nanocrystalline Suspensions of Irbesartan Enhance Oral Bioavailability by Improving Drug Solubility and Leading Endocytosis Uptake into the Intestine” (Pharmaceutics, 2021).

What was measured:
[1] = for Aqueous solubility of crystalline form: forms A and B
[2] = set-up: method as in PMID 9438775
patients = system: patients; set-up: method as in PMID 9438776; details: 300 mg dose

Aqueous solubility of crystalline form [1] [µg/mL]	BCS class ([1]; low aqueous solubility and high permeability)	Time of Cmax after oral administration [2] [h]	Oral bioavailability (BA) ([2]; in patients)	Compound	Decrease in BP from baseline (patients) [mmHg]	Higher BP in treated compared to nontreated patients (so in the source) (patients)
11				CCCCC1=NC2(CCCC2)C(=O)N1Cc1ccc(-c2ccccc2-c2nnn[nH]2)cc1 [form A, irbesartan]		
0.6				CCCCC1=NC2(CCCC2)C(=O)N1Cc1ccc(-c2ccccc2-c2nnn[nH]2)cc1 [form B, irbesartan]		
	BCS class II	1.5 to 2	60–80%	CCCCC1=NC2(CCCC2)C(=O)N1Cc1ccc(-c2ccccc2-c2nnn[nH]2)cc1 [irbesartan]	10	approximately 70%
